Assay results: ChEMBL document CHEMBL1144809, “Synthesis and biological evaluation of histone deacetylase inhibitors that are based on FR235222: a cyclic tetrapeptide scaffold” (Bioorg Med Chem Lett, 2008)

Assays:
[1] = tested on: Histone deacetylase (Homo sapiens); test: Inhibition of HDAC at 200 uM relative to control
BXPC-3 = test: Cytotoxicity against human BxPC3 cells at 5 uM; type: functional; details: read-out: GI

inhibition [1] | Compound | inhibition of growth at 5 µM (BXPC-3)
83% | CC[C@@H]1NC(=O)[C@H](CCCNC(=N)N)NC(=O)[C@H]2CCCN2C(=O)[C@@H]2Cc3ccccc3CN2C1=O | 0%
98% | CC[C@@H]1NC(=O)[C@H](CCCNC(=N)N)NC(=O)[C@H]2CCCCN2C(=O)[C@@H](Cc2ccccc2)NC1=O | 20%
97% | CC[C@@H]1NC(=O)[C@H](CCCNC(=N)N)NC(=O)[C@H]2CCCN2C(=O)[C@@H](Cc2ccccc2)NC1=O | 17%
97% | CC[C@@H]1NC(=O)[C@H](CCCNC(=N)N)NC(=O)[C@H]2CCCN2C(=O)[C@H](Cc2ccccc2)NC1=O | 27%
 | CCC(=O)CCCCC[C@@H]1NC(=O)[C@H]2CCCCN2C(=O)[C@H]([C@@H](C)CC)NC(=O)[C@H](Cc2cn(OC)c3ccccc23)NC1=O [APICIDIN] | 98%
38% | CC[C@@H]1NC(=O)[C@H](CCCCNC(C)=O)NC(=O)[C@H]2CCCN2C(=O)[C@H](Cc2ccccc2)NC1=O | 38%
86% | CC[C@@H]1NC(=O)[C@H](CCCCNC(C)=O)NC(=O)[C@H]2CCCN2C(=O)[C@H](Cc2ccccc2)N(C)C1=O | 19%
